From paper PMC2854587 (Nature, 2008)

Biological target: T1, SrfTEII (surfactin type II thioesterase; SrfD, external thioesterase) (Bacillus subtilis, UniProt Q08788)
T1 sequence (Q08788 1-241): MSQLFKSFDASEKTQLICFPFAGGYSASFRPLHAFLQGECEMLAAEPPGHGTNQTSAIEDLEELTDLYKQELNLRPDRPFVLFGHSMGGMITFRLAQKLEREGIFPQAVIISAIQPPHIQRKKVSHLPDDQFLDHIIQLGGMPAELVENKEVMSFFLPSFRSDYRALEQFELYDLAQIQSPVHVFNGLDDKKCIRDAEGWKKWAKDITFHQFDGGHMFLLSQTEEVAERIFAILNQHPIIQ
Assay: […]-HSQC NMR titration
Assay type: binding
Details: 296 K; 15N-enriched SrfTEII

Question: `CCCCCCCCCCCCCC(=O)SCCNC(=O)CCNC(=O)[C@H](O)C(C)(C)COP(=O)(O)OP(=O)(O)OC[C@H]1O[C@@H](n2cnc3c(N)ncnc32)[C@H](O)[C@@H]1OP(=O)(O)O` [myristoyl-CoA] was tested. Which “15N-HSQC NMR titration (chemical shift perturbation)” value did it give?
Answer: Interestingly, myristoyl-CoA also binds to SrfTEII
